PubChem BioAssay AID2060326 (Molecular Pharmacology Branch, DTP, NCI, 2025)
Values joined by “and” are separate entries in the source; they are usually repeats but may differ in a detail not shown here. Identical values can stand only once. Each block holds one compound with its values, some of them ahead of it.

Test system: MDA-MB-468 multi-cell spheroids, viability
Assay: Anticancer human tumor MDA-MB-468 cell line growth inhibition [IpAb];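 further: spheroids exposed to agents for seven days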;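 on viability, T/C: 100% = DMSO vehicle control viability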
Details: for viability, T/C: stronger effect = lower value
Outline: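 Multi-cell spheroids of 60% tumour cells, 25% HUVEC and 15% MSC in ultra-low-attachment U-bottom wells, treated with agents combined with ipatasertib or abemaciclib. Half-log ranges top out near clinical Cmax, or 10 microM when Cmax is unknown.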

[1] = curve of first compound, second compound 0.1 µM
[2] = curve of first compound, second compound 0.316 µM
[3] = curve of first compound, second compound 1 µM
[4] = curve of first compound, second compound 3.16 µM
[5] = curve of first compound, second compound 10 µM
[6] = second compound 0.1 µM, first compound 0.0316 µM
[7] = second compound 0.1 µM, first compound 0.1 µM
[8] = second compound 0.316 µM, first compound 0.0316 µM
[9] = second compound 0.316 µM, first compound 0.1 µM
[10] = second compound 1 µM, first compound 0.0316 µM
[11] = second compound 1 µM, first compound 0.1 µM
[12] = second compound 3.16 µM, first compound 0.0316 µM
[13] = second compound 3.16 µM, first compound 0.1 µM
[14] = second compound 10 µM, first compound 0.0316 µM
[15] = second compound 10 µM, first compound 0.1 µM

Structure (SMILES): CCCS(=O)(=O)Nc1ccc(F)c(C(=O)c2c[nH]c3ncc(-c4ccc(Cl)cc4)cc23)c1F + CC(C)NCC(C(=O)N1CCN(c2ncnc3c2C(C)CC3O)CC1)c1ccc(Cl)cc1
IC50 [1]: > 10000 nM
IC50 [2]: 9960 nM
IC50 [3]: 498 nM
IC50 [4]: < 31.6 nM
IC50 [5]: < 31.6 nM
viability, T/C [6]: 86.3%
viability, T/C [7]: 87.3%
viability, T/C (second compound 0.1 µM, first compound 0.316 µM): 98.5%
viability, T/C (second compound 0.1 µM, first compound 1 µM): 98%
viability, T/C (second compound 0.1 µM, first compound 3.16 µM): 71.7%
viability, T/C (second compound 0.1 µM, first compound 10 µM): 50.1%
viability, T/C [8]: 62.2%
viability, T/C [9]: 60.7%
viability, T/C (second compound 0.316 µM, first compound 0.316 µM): 62.5%
viability, T/C (second compound 0.316 µM, first compound 1 µM): 74.8%
viability, T/C (second compound 0.316 µM, first compound 3.16 µM): 53.3%
viability, T/C (second compound 0.316 µM, first compound 10 µM): 39.3%
viability, T/C [10]: 58.4%
viability, T/C [11]: 53.6%
viability, T/C (second compound 1 µM, first compound 0.316 µM): 52.6%
viability, T/C (second compound 1 µM, first compound 1 µM): 46%
viability, T/C (second compound 1 µM, first compound 3.16 µM): 40.1%
viability, T/C (second compound 1 µM, first compound 10 µM): 27.8%
viability, T/C [12]: 35.7%
viability, T/C [13]: 34.1%
viability, T/C (second compound 3.16 µM, first compound 0.316 µM): 29.4%
viability, T/C (second compound 3.16 µM, first compound 1 µM): 31.3%
viability, T/C (second compound 3.16 µM, first compound 3.16 µM): 30.1%
viability, T/C (second compound 3.16 µM, first compound 10 µM): 18.6%
viability, T/C [14]: 17.3%
viability, T/C [15]: 18.3%
viability, T/C (second compound 10 µM, first compound 0.316 µM): 18.9%
viability, T/C (second compound 10 µM, first compound 1 µM): 16.9%
viability, T/C (second compound 10 µM, first compound 3.16 µM): 13.7%
viability, T/C (second compound 10 µM, first compound 10 µM): 2.03%

Structure (SMILES): CC(=O)c1c(C)c2cnc(Nc3ccc(N4CCNCC4)cn3)nc2n(C2CCCC2)c1=O
viability, T/C (compound 0.000949 µM): 93.7% and 99%
viability, T/C (compound 0.003 µM): 91.4% and 97.5%
viability, T/C (compound 0.00949 µM): 92% and 93.8%
viability, T/C (compound 0.03 µM): 88.1% and 91.8%
viability, T/C (compound 0.0949 µM): 92.4% and 81.4%
viability, T/C (compound 0.3 µM): 90.2% and 73.4%
IC50 (curve of compound): > 300 nM

Structure (SMILES): CC(C)(C)c1cnc(CSc2cnc(NC(=O)C3CCNCC3)s2)o1
viability, T/C (compound 0.00949 µM): 90.5% and 95.1%
viability, T/C (compound 0.03 µM): 98.2% and 96.8%
viability, T/C (compound 0.0949 µM): 44.3% and 64.7%
viability, T/C (compound 0.3 µM): 0.55% and 0.39%
viability, T/C (compound 0.949 µM): 0.44% and 0.29%
viability, T/C (compound 3 µM): 0.51% and 0.39%
IC50 (curve of compound): 83.2 nM and 123 nM

Structure (SMILES): CC(C)n1nc(-c2ccc3oc(N)nc3c2)c2c(N)ncnc21 + CC(C)NCC(C(=O)N1CCN(c2ncnc3c2C(C)CC3O)CC1)c1ccc(Cl)cc1
IC50 [1]: 5.15 nM
IC50 [2]: 2.36 nM
IC50 [3]: < 0.316 nM
IC50 [4]: < 0.316 nM
IC50 [5]: < 0.316 nM
viability, T/C (second compound 0.1 µM, first compound 0.000316 µM): 76.6%
viability, T/C (second compound 0.1 µM, first compound 0.001 µM): 72.1%
viability, T/C (second compound 0.1 µM, first compound 0.00316 µM): 58.3%
viability, T/C (second compound 0.1 µM, first compound 0.01 µM): 38.7%
viability, T/C [6]: 15.8%
viability, T/C [7]: 7.82%
viability, T/C (second compound 0.316 µM, first compound 0.000316 µM): 59%
viability, T/C (second compound 0.316 µM, first compound 0.001 µM): 54.5%
viability, T/C (second compound 0.316 µM, first compound 0.00316 µM): 48.6%
viability, T/C (second compound 0.316 µM, first compound 0.01 µM): 23.4%
viability, T/C [8]: 9.26%
viability, T/C [9]: 5.3%
viability, T/C (second compound 1 µM, first compound 0.000316 µM): 47.6%
viability, T/C (second compound 1 µM, first compound 0.001 µM): 41%
viability, T/C (second compound 1 µM, first compound 0.00316 µM): 31.1%
viability, T/C (second compound 1 µM, first compound 0.01 µM): 11.3%
viability, T/C [10]: 5.17%
viability, T/C [11]: 3.13%
viability, T/C (second compound 3.16 µM, first compound 0.000316 µM): 31.4%
viability, T/C (second compound 3.16 µM, first compound 0.001 µM): 25.4%
viability, T/C (second compound 3.16 µM, first compound 0.00316 µM): 16.8%
viability, T/C (second compound 3.16 µM, first compound 0.01 µM): 5.94%
viability, T/C [12]: 2.41%
viability, T/C [13]: 1.21%
viability, T/C (second compound 10 µM, first compound 0.000316 µM): 15.7%
viability, T/C (second compound 10 µM, first compound 0.001 µM): 14.3%
viability, T/C (second compound 10 µM, first compound 0.00316 µM): 7.69%
viability, T/C (second compound 10 µM, first compound 0.01 µM): 3.03%
viability, T/C [14]: 0.6%
viability, T/C [15]: 0.38%

The next lines start with results.

IC50 (curve of compound): 141 nM and 139 nM
Structure (SMILES): COc1c(OCCCN2CCOCC2)ccc2c3n(c(=NC(=O)c4cnc(N)nc4)nc12)CCN3
viability, T/C (compound 0.00316 µM): 89% and 95.1%
viability, T/C (compound 0.01 µM): 95% and 91.5%
viability, T/C (compound 0.0316 µM): 73% and 72.7%
viability, T/C (compound 0.1 µM): 63.9% and 66.5%
viability, T/C (compound 0.316 µM): 25.6% and 23.6%
viability, T/C (compound 1 µM): 4.06% and 3.22%

IC50 (curve of compound): 7490 nM and 8200 nM
Structure (SMILES): C=CC(=O)N1CCN(c2nc(=O)n(-c3c(C)ccnc3C(C)C)c3nc(-c4c(O)cccc4F)c(F)cc23)C(C)C1 (stereo not drawn)
viability, T/C (compound 0.0316 µM): 90.5% and 115%
viability, T/C (compound 0.1 µM): 103% and 119%
viability, T/C (compound 0.316 µM): 121% and 129%
viability, T/C (compound 1 µM): 105%
viability, T/C (compound 3.16 µM): 93.5% and 110%
viability, T/C (compound 10 µM): 35.1% and 37.1%
